From patent US20250101028A1, “HETEROCYCLIC COMPOUNDS, COMPOSITIONS THEREOF, AND METHODS OF TREATMENT THEREWITH” (BeiGene, Ltd., priority 2022, published 2025)

How the values were obtained:
[1] = system: pERK1/2(THR202/TYR204) level, AsPC-1 cell line; experiment: KRAS G12D pERK assay (HTRF); type: cell-based; details: Homo sapiens, ASPC1; AsPC-1 cells, 2 h compound treatment
Method: (§1) AsPC-1 cell line was used in this study. Cells were maintained in RPMI-1640 supplemented with 10% fetal bovine serum (Thermo Fisher), 50 units/mL penicillin and streptomycin (Thermo Fisher) and kept at 37° C. in a humidified atmosphere of 5% CO2 in air. Cells were reinstated from frozen stocks that were laid down within 30 passages from the original cells purchased. 30000 cells per well were seeded into a 96-well plate and incubated overnight. Cells were treated with a 10-point dilution series. The final compound concentration is from 0 to 10 μM. After 2 h compound treatment, cells were lysed, and the pERK1/2(THR202/TYR204) level in the cell lysates was detected by HTRF kit (Cisbio). In brief, a total of 16 μL of cell lysate from each well of a 96-well plate was transferred to a 384-well white assay plate. Lysate from each well was incubated with 2 μL of Eu3+− cryptate (donor) labeled anti-phospho-ERK1/2 and 2 μL of D2 (acceptor) labeled anti-phospho-ERK1/2 antibodies (Cisbio) overnight in dark at room temperature. When donor and acceptor are in close proximity, excitation of the donor with laser triggers a Fluorescence Resonance Energy Transfer (FRET) towards the acceptor, which in turn fluoresces at 655 nm wavelength. FRET signals were measured using a PHERAstar FSX reader (BMG Labtech). IC50 determination was performed by fitting the curve of percent inhibition versus the log of the inhibitor concentration using Dotmatics.

[2] = target: T1, GST-tagged GDP-loaded KRAS G12V (amino acids 1-169) (Homo sapiens, UniProt P01116, G12V); experiment: KRAS G12V probe displacement assay (TR-FRET); type: binding; details: displacement of biotinylated probe 2 from GDP-loaded KRAS G12V
T1 construct: GST-tagged GDP-loaded KRAS G12V (amino acids 1-169); made in house; host or cells: E. coli
T1 sequence (P01116 1-169 isoform P01116-2 G12V): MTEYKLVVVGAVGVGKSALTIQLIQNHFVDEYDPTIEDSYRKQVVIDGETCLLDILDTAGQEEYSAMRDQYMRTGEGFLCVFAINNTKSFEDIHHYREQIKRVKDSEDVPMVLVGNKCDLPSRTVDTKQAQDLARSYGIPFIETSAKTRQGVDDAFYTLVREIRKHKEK
Method in brief: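 Probe displacement read as TR-FRET (665/620 nm) with anti-GST-Tb and streptavidin-XL665, IC50 from four-parameter logistic fit. Compound preincubated 1 h, 24 °C, with E. coli-expressed KRAS 1-169: WT at 3 nM with 60 nM probe 1, G12V at 2 nM with 2.5 nM probe 2, pH 7.5.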

[3] = system: pERK1/2(THR202/TYR204) level, SW620 cell line; experiment: KRAS G12V pERK assay (HTRF); type: cell-based; details: Homo sapiens, SW-620; SW620 cells, 2 hrs compound treatment
Method: as §1, with “SW620 cell” for “AsPC-1 cell”, “in RPMI 1640” for “in RPMI-1640”, “purchased. 40000” for “purchased. 30000”, “[…].” for “10 μM.”, “2 hrs” for “2 h”

[4] = target: T2, GST-tagged GDP-loaded KRAS G12D (amin acids 1-188) (Homo sapiens, UniProt P01116, G12D); experiment: KRAS G12D probe displacement assay (TR-FRET); type: binding; details: displacement of biotinylated probe 2 from GDP-loaded KRAS G12D
T2 construct: GST-tagged GDP-loaded KRAS G12D (amin acids 1-188); made in house; host or cells: E. coli
T2 sequence (P01116 1-188 isoform P01116-2 G12D): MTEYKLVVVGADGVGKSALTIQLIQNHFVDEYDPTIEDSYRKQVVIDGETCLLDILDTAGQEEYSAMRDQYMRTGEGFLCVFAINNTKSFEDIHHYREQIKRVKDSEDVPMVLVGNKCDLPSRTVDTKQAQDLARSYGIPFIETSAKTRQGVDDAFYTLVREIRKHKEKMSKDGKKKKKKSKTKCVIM
Method: KRAS WT and KRAS G12D Probe Displacement Assay
This assay was used to identify compounds which bind to GDP-loaded KRAS protein and are able to displace a biotinylated probe occupying the KRAS binding site. GST-tagged GDP-loaded WT KRAS (amino acids 1-188) and GST-tagged GDP-loaded KRAS G12D (amin acids 1-188) were expressed in E. coli and purified in house. All protein and reaction solutions were prepared in assay buffer containing 50 mM HEPES pH7.5, 50 mM NaCl, 1 mM MgCl2, 1 mM TCEP, 0.01% BSA, and 0.008% Brij-35. Purified WT KRAS (3 nM final concentration) or KRAS G12D protein (0.5 nM final concentration) was incubated with a 3-fold serially diluted compound in the assay plate (384 well microplate, black, Corning). Plates are incubated at 24° C. for 1 hr. Following the incubation, biotinylated probe 1 (60 nM final assay concentration) for WT KRAS and biotinylated probe 2 (4 nM final assay concentration) for KRAS G12D was added to the assay plate, respectively. After 1 hr incubation at 24° C., Mab Anti-GST-Tb cryptate (Cisbio) and Streptavidin-XL665 (Cisbio) were added and further incubated at 24° C. for another 1 hr. The TR-FRET signals (ex337 nm, em665 nm/620 nm) were read on BMG PHERAstar FSX instrument. The inhibition percentage of KRAS protein binding with biotinylated probe in presence of increasing concentrations of compounds was calculated based on the ratio of fluorescence at 665 nm to that at 620 nm. The IC50 value of each compound was calculated from fitting the data to the four-parameter logistic model by Dotmatics.

SMILES	IC50 [1] [nM]	IC50 [2] [nM]	IC50 [3] [nM]	IC50 [4] [nM]
Nc1nc2c(-c3c(C(F)(F)F)cc4c(NC5CC5)nc(OC[C@@]56CCCN5C[C@H](F)C6)nc4c3F)ccc(F)c2s1 [Example 1, 4-(4-(cyclopropylamino)-8-fluoro-2-(((2R,7aS)-2-fluorotetrahydro-1H-pyrrolizin-7a(5H)-yl)methoxy)-6-(trifluoromethyl)quinazolin-7-yl)-7-fluorobenzo[d]thiazol-2-amine]	2460	4.2	129	22
N#CC1CCN(c2nc(OC[C@@]34CCCN3C[C@H](F)C4)nc3c(F)c(-c4ccc(F)c5sc(N)nc45)c(C(F)(F)F)cc23)CC1 [Example 68, 1-(7-(2-amino-7-fluorobenzo[d]thiazol-4-yl)-8-fluoro-2-(((2R,7aS)-2-fluorotetrahydro-1H-pyrrolizin-7a(5H)-yl)methoxy)-6-(trifluoromethyl)quinazolin-4-yl)piperidine-4-carbonitrile]	686	0.77	76	6.6
Nc1nc2c(-c3c(C(F)(F)F)cc4c(N5CCC6(CC5)CNC(=O)O6)nc(OC[C@@]56CCCN5C[C@H](F)C6)nc4c3F)ccc(F)c2s1 [Example 86, 8-(7-(2-amino-7-fluorobenzo[d]thiazol-4-yl)-8-fluoro-2-(((2R,7aS)-2-fluorotetrahydro-1H-pyrrolizin-7a(5H)-yl)methoxy)-6-(trifluoromethyl)quinazolin-4-yl)-1-oxa-3,8-diazaspiro[4.5]decan-2-one]	5440	0.8	715	23
C[C@@H]1C[C@@H](C#N)CCN1c1nc(OC[C@@]23CCCN2C[C@H](F)C3)nc2c(F)c(-c3ccc(F)c4sc(N)c(C#N)c34)c(C(F)(F)F)cc12 [Example 100, (2R,4S)-1-(7-(2-amino-3-cyano-7-fluorobenzo[b]thiophen-4-yl)-8-fluoro-2-(((2R,7aS)-2-fluorotetrahydro-1H-pyrrolizin-7a(5H)-yl)methoxy)-6-(trifluoromethyl)quinazolin-4-yl)-2-methylpiperidine-4-carbonitrile]	56	0.74	18	0.34
C[C@@]1(O)CCCN(c2nc(OC[C@@]34CCCN3C[C@H](F)C4)nc3c(F)c(-c4cc(N)cc(Cl)c4C(F)(F)F)ncc23)C1 [Example 128, (R)-1-(7-(5-amino-3-chloro-2-(trifluoromethyl)phenyl)-8-fluoro-2-(((2R,7aS)-2-fluorotetrahydro-1H-pyrrolizin-7a(5H)-yl)methoxy)pyrido[4,3-d]pyrimidin-4-yl)-3-methylpiperidin-3-ol]	76	2.6	84	1.2
